Type in all cases: cell-based
In test [1] the test system is C. albicans. The test can be described thus: MIC100 against C. albicans strains. To be noted: Candida albicans, 48 h.
Test [2] concerns C. glabrata. As to the kind of experiment: MIC100 against C. glabrata strains. To be noted: Nakaseomyces glabratus, 48 h.
The subject of test [3] is C. tropicalis. As to the kind of experiment: MIC100 against C. tropicalis. To be noted: Candida tropicalis; C. tropicalis 19596(w.t), wild type; 48 h.

≈ marks a conversion by molar mass, not a printed value.

Usually MIC stands for the lowest concentration that inhibits growth of the organism. A high value points to a need for much substance. Consider `Clc1ccc(COC(Cn2ccnc2)c2ccc(Cl)cc2Cl)c(Cl)c1` (stereo not shown) [miconazole], for which the MIC in test [1] (C. albicans 19457(w.t), wild type) amounted to 4.17 µM (≈ 1.74 µg/mL); in test [1] (C. albicans 19507(r), resistant) it was 4.17 µM (≈ 1.74 µg/mL); in test [1] (C. albicans 20126(r), resistant), 17 µM (≈ 7.07 µg/mL); in test [2] (C. glabrata 05/1032(r), resistant) it was 8.3 µM (≈ 3.45 µg/mL); in test [2] (C. glabrata 05/1414(r), resistant), 17 µM (≈ 7.07 µg/mL); in test [2] (C. glabrata 19371(w.t.), wild type) it was 4.17 µM (≈ 1.74 µg/mL). In test [3], this compound displayed an MIC of 8.3 µM (≈ 3.45 µg/mL).

Source of the values: patent US8147852B2, “Modified azole compounds as antifungal and antibacterial agents” (Barrier Therapeutics, Inc., priority 2006, dated 2012).
